SMILES strings stand for the structures.

Test [1] has as its system ApoE−/− mice. The experiment in a line: Atherosclerotic plaque coverage of the aorta in ApoE−/− mice (Example 1). It is filed as in vivo. Conditions: at 16 weeks. As to the method: Male ApoE^−/− mice were fed a high fat diet (21% fat, 0.15% cholesterol, 19.5% casein) ad libitum for two weeks in order to acclimate to the diet. Plasma cholesterol levels and body weight were measured in order to obtain baseline levels, and mice were randomized into three groups of 20 mice based on these measurements. After the acclimation period, mice remained on the high fat diet and were administered A-002 (30 mg/kg or 90 mg/kg) or vehicle only (5% acacia) twice a day for 16 weeks by oral gavage.
At the end of the 16th week, mice were sacrificed and plasma samples, heart tissue, and aortas from the heart to approximately 3 mm distal to the iliac bifurcation were collected. Aortas were placed on microscope slides and stained with Oil Red O for scanning and image analysis of atherosclerotic lesion size. Vessel images were captured using a Microtek Scanmaker 9600XL scanner (Microtek, Carson, Calif.) and Photoshop 6.0 software (Adobe Systems Inc., San Jose, Calif.). Atherosclerotic plaque coverage was quantified for the entire length of the vessel including the arch using Image-Pro Plus software. Vessels were also analyzed for plaque coverage in the descending abdominal aorta, starting in the region of the first intercostal branches to the iliac bifurcation (not including the arch). Plaque content was expressed as a percent of the aortic surface. […]

Test [2] has as its system ApoE−/− mice. The experiment in a line: En face lesion size in ApoE−/− mice on high fat diet, A-002 and/or statin (Example 3). It is filed as in vivo. The settings on record: alone or plus 0.02 g/kg pravastatin, 12 weeks. On the procedure:
(§1) Body weight, plasma total cholesterol, and plasma HDL levels were measured for six groups of twelve ApoE^−/− mice. The mice were then placed on a high fat diet for twelve weeks to allow for formation of significant fatty atherosclerotic plaques. The high fat diet was a modified version of the Western diet (TD.88137, Harlan Teklad, Madison, Wis.) consisting of casein (195 g/kg), DL-methionine (3 g/kg), sucrose (341.44 g/kg), corn starch (150 g/kg), anhydrous milkfat (210 g/kg), cholesterol (1.5 g/kg), cellulose (50 g/kg), mineral mix AlN-76 (Teklad; 35 g/kg), calcium carbonate (4 g/kg), vitamin mix (Teklad #40060; 10 g/kg), ethyoxyquin (antioxidant, 0.04 g/kg), and either 0.0156 g/kg (“low dose”) A-002 (Group A), 1.56 g/kg (“high dose”) A-002 (Group B), 0.02 g/kg pravastatin (Group C), low dose A-002 plus 0.02 g/kg pravastatin (Group D), high dose A-002 plus 0.02 g/kg pravastatin (Group E), or vehicle only (Group F). Mice were administered diets A-F in a blinded manner, and food was provided ad libitum. The diet was initially prepared based on the assumption that each mouse weighed 22.5 g and ate 4.5 g/day. Based on body weight and food consumption, the diet was modified over the 12 week course of treatment to adjust for a body weight of 26 g and a food intake of 2.5 g/day. The dosages of A-002 were selected to cover a range of 100-fold based on pharmacokinetics in ApoE^−/− mice as well as toxicology and previously observed efficacy in this model.
After twelve weeks, mice were sacrificed and plasma, heart tissue, and aortic tissue were collected. En face lesion size was determined via digital imaging analysis. Plaque content (as measured as en face lesion) was reduced in mice administered A-002 alone, statin alone, or A-002 in combination with statin. The reduction in plaque content in mice administered A-002 plus statin was substantially greater than the reduction in mice administered either compound alone (Table 2, compare Group D vs. Groups A and C; Group E vs. Groups B and C). Further, the reduction in plaque content in mice administered A-002 plus statin was substantially greater than the sum of the reduction in plaque content in mice administered A-002 alone and mice administered statin alone.

The subject of test [3] is ApoE−/− mice. The experiment in a line: Plasma total cholesterol and HDL levels in ApoE−/− mice, A-002 and/or statin (Example 3). It is filed as in vivo. Conditions: alone or plus 0.02 g/kg pravastatin, 12 weeks. As to the method: as §1
Plasma total cholesterol and HDL levels were measured. Mean levels of total cholesterol were decreased in mice administered A-002 alone or in combination with statin (Table 3, FIG. 6). […] Mean levels of HDL were increased in mice administered A-002 at either dosage (Table 4). This increase was greater in mice administered high dose A-002 plus statin than in mice administered high dose A-002 or statin alone (Table 4 compare Group E vs. Groups B and C; FIG. 7).

The next test has as its system sPLA2. In words: Serum sPLA2 concentration in humans, A-002 twice a day (Example 4). Conditions: ITT population, week 8. In kind it is in vivo, human. On the procedure: (§2) 204 human subjects from the United States with CVD, specifically stable coronary artery disease, were randomized to receive placebo or A-002 via oral administration twice a day over an eight week administration period at dosages of 50 mg, 100 mg, 250 mg, or 500 mg. Levels of various lipids and inflammatory markers were measured at the outset of the trial and at the end of weeks four and/or eight. For data sets with a normal distribution, mean levels of lipids or inflammatory markers were analyzed. For data sets with non-normal distribution, median levels were analyzed. […] In addition, administration of A-002 decreased median levels of CRP (Table 11).

The next test relates to IL-6. The experiment in a line: Serum IL-6 concentration in humans with metabolic syndrome, A-002 twice a day (Example 4). It is filed as in vivo, human. Conditions: metabolic syndrome subpopulation, week 8. On the procedure:
as §2
Serum TG, CRP, and IL-6 levels were measured at eight weeks in 86 subjects from the ITT population diagnosed with metabolic syndrome.

The subject of a further test is CRP. The experiment in a line: Serum CRP concentration in humans, A-002 once a day (Example 6). In kind it is in vivo, human. Conditions: week 8. As to the method:
135 human subjects over the age of 18 with CVD, specifically stable CAD, were randomized to receive either placebo or one of two dosages (250 mg or 500 mg) of A-002 via once a day oral administration over an eight week time period. 89 of the subjects received A-002, while 46 of the subjects received placebo. Subjects that were receiving statins or other compounds used in the treatment of CVD at the outset of the trial continued to receive those therapeutics throughout the trial. 121 of the 135 subjects were on statins during the trial. There was little variation between dosage groups with respect to age, height, weight, or BMI.
Levels of various lipids and inflammatory markers were measured at the outset of the trial and at weeks two, four, and/or eight weeks after the start of A-002 administration. In addition, plasma A-002 levels were measured at various intervals. Lipids that were measured included LDL, small LDL particle, oxidized LDL, non-HDL cholesterol, total cholesterol, ApoB, and triglycerides. In addition, levels of the inflammatory marker CRP were measured. Lipid and inflammatory marker levels at each timepoint were compared to the baseline measurements to determine the effect of A-002 administration. For data sets with a normal distribution, mean levels of lipids or inflammatory markers were analyzed. For data sets with non-normal distribution, median levels were analyzed. LDL particle size was also assessed.

Where [4] appears, read: high dose A-002 (1.56 g/kg diet).
Where [5] appears, read: low dose A-002 (0.0156 g/kg diet).
Setting [6] is: statin subpopulation with baseline serum LDL greater than 70 mg/dl.

`CCc1c(C(=O)C(N)=O)c2c(OCC(=O)OC)cccc2n1Cc1ccccc1` [A-002, [[3-(2-Amino-1,2-dioxoethyl)-2-ethyl-1-(phenylmethyl)-1H-indol-4-yl]oxy]acetic acid methyl ester]: the “plaque coverage in aortic tissue” value in the test on ApoE−/− mice [1] (30 mg/kg A-002 twice a day) is listed as 6.3%. Also, the “plaque coverage in aortic tissue” value in the test on ApoE−/− mice [1] (90 mg/kg A-002 twice a day) came to 6.8%. In the test on ApoE−/− mice [2] (setting [4]), the “Change in mean % en face lesion vs. control” value is given as −4.158% and the “Mean % en face lesion” value is reported as 1.469%. Besides, in the test with ApoE−/− mice [2] (setting [5]), the “Change in mean % en face lesion vs. control” value was −2.241% and the “Mean % en face lesion” value is recorded as 3.386%. Besides, in the test on ApoE−/− mice [3] (setting [4]), the “Mean HDL concentration” value amounted to 17.167 mg/dL and the “Mean total cholesterol concentration” value is 1301.750 mg/dL. In the test on ApoE−/− mice [3] (setting [5]), the “Mean HDL concentration” value was found to be 21.000 mg/dL and the “Mean total cholesterol concentration” value is 1355.545 mg/dL. Moreover, in the test with sPLA2, the “% change vs. baseline (median [sPLA2])” value is −86.96% and the “Change in median [sPLA2] vs. baseline” value is -2.00 ng/mL. In addition, in the test on IL-6, the “% change vs. baseline (mean [IL-6])” value is −4.29% and the “Change in mean [IL-6] vs. baseline” value was -0.24 pg/mL. The “% change vs. baseline (median [CRP])” value in the test with CRP (ITT population) was “+5.4%”. Further, in the test on CRP (setting [6]), the “% change vs. baseline (median [CRP])” value was “+9.1%” and the “Change in median [CRP] vs. baseline” value was “+0.10 mg/L”. For the same compound, in the test on CRP (statin subpopulation), the “% change vs. baseline (median [CRP])” value is reported as “+8.7%” and the “Change in median [CRP] vs. baseline” value is recorded as “+0.10 mg/L”.

Source of the values: patent US8048880B2, “Treatment of cardiovascular disease and dyslipidemia using secretory phospholipase A2 (SPLA2) inhibitors and SPLA2 inhibitor combination therapies” (Anthera Pharmaceuticals, Inc., priority 2007, dated 2011).
